Test results: patent US7056947B2, “Aza-peptide epoxides” (Georgia Tech Research Corp., priority 2002, dated 2006)

Columns and labels:
Format in all cases: biochemical
caspase-3 = biological target: T1, caspase-3 (Homo sapiens, UniProt P42574); assay: Caspase-3 progress curve assay; settings: substrate Z-DEVD-AFC; NI = no inhibition
T1 construct: made in house; host or cells: E. coli
T1 sequence (P42574 29-175 limits assumed): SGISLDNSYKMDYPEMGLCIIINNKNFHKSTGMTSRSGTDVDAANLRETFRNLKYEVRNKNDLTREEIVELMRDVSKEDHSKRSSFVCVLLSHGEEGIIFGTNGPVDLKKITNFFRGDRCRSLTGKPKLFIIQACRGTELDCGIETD
T1 sequence (P42574 176-277 limits assumed): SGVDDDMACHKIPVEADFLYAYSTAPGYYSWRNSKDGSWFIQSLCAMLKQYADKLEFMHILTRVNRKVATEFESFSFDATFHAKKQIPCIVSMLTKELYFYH
How it was run: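 E. coli-expressed caspases, pre-activated 10 min at 37° C with 10 mM DTT, were added to 100 μM Z-DEVD-AFC plus inhibitor in 50 mM Hepes, 100 mM NaCl, 0.1% CHAPS, 10% sucrose, 10 mM DTT, pH 7.4. AFC fluorescence (ex 400/em 505 nm) was followed; inhibition rates and equilibria came from progress curves.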

caspase-1 = biological target: T2, caspase-1 (Homo sapiens, UniProt P29466, D381E); assay: Caspase-1 progress curve assay; settings: D381E variant, substrate Ac-YVAD-AMC, 30° C.
T2 construct: His tag (N); made in house; host or cells: E. coli
T2 sequence (P29466 120-297 limits assumed): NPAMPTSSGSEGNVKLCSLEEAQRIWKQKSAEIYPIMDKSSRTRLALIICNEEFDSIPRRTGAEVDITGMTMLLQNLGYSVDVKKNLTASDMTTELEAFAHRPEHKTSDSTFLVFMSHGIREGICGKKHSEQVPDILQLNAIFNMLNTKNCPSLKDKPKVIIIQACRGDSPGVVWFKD
T2 sequence (P29466 317-404 D381E limits assumed): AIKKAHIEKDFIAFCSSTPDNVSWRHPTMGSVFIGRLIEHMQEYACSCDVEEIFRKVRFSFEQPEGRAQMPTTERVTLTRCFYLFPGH
How it was run: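 Autolysis-resistant D381E caspase-1 (E. coli, N-His tag), about 2 nM, added with 15 μM Ac-YVAD-AMC in HEPES/glycerol/EDTA buffer with 5 mM DTT to prewarmed compound at 30 °C. AMC fluorescence followed 900 s, triplicate curves fit to irreversible inactivation; kon (M^−1s^−1) from regression slope.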

caspase-6 = biological target: T3, caspase-6 (Homo sapiens, UniProt P55212); assay: Caspase-6 progress curve assay; settings: Table V, substrate Z-DEVD-AFC
T3 construct: made in house; host or cells: E. coli
T3 sequence (P55212 24-179 limits assumed): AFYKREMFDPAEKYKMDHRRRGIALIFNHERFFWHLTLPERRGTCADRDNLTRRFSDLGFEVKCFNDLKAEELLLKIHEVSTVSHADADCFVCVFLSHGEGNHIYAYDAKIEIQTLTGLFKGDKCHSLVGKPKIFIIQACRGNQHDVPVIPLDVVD
T3 sequence (P55212 194-293 limits assumed): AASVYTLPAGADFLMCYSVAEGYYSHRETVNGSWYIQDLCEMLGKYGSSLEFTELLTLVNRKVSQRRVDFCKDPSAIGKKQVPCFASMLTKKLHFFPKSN
Experimental: Caspase-3, -6, and -8. Caspase-3, -6 and -8 were expressed in E. coli and purified according to methods previously described by Stennicke and Salvesen. Assays using the fluorogenic substrate Z-DEVD-AFC (λex=400 nm, λem=505 nm) were carried out on a Molecular Devices fMax fluorescence microplate reader. Inhibition rates and equilibria were determined by the progress curve method. The standard 100 μL reaction was started by adding enzyme to a mixture of substrate (final concentration of Z-DEVD-AFC 100 μM) and various amounts of inhibitor in buffer (50 mM Hepes, 100 mM NaCl, 0.1% (w/v) CHAPS, sucrose 10% (w/v), and 10 mM DTT, at pH 7.4). The caspases were pre-activated for 10 min at 37° C. in the presence of 10 mM DTT.

[1] = biological target: dipeptidyl peptidase I (DPPI, cathepsin C) (Homo sapiens, UniProt P53634); assay: Inhibition of DPPI
papain = biological target: T4, papain (Carica papaya, UniProt P00784); assay: Inhibition of papain, incubation method; settings: second-order rate constant, NI = no inhibition; for kinact/KI: pH 7.5, read-out: kobs/[I] papain
T4 sequence (P00784 134-345): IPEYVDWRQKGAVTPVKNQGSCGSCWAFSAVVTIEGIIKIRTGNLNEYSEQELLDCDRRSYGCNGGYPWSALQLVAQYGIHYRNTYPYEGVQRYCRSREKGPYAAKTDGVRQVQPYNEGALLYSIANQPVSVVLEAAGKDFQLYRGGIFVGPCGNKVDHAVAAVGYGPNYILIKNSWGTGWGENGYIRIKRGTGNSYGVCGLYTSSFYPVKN
Experimental: (§1) The release of 7-amino-4-methylcoumarin was monitored (λex=360 nm, λem=465 nm) using a Tecan Spectra Fluor microplate reader. Pseudo first-order inactivation rate constants were obtained from plots of In vt/vo versus time.
The incubation method was also used for papain. The inhibition incubation buffer for papain was 50 mM Hepes buffer at pH 7.5, containing 2.5 mM DTT and 2.5 mM EDTA. The assay used the substrate Z-Phe-Arg-pNA (53.7 μM) in the same buffer. The approximate concentration of papain added to the incubation buffer was 0.29 mg/mL. The release of p-nitroanilide was monitored at 405 nm with a Molecular Devices Thermomax microplate reader.

cathepsin B = cathepsin B (Homo sapiens, UniProt P07858); assay: Inhibition of cathepsin B, incubation method; settings: second-order rate constant, NI = no inhibition; for kinact/KI: pH 6, read-out: kobs/[I] cathepsin B
Text: as §1

calpain = assay: Inhibition of calpain; settings: second-order rate constant; NI = no inhibition

Chain of dipeptidyl peptidase I (DPPI, cathepsin C) (P53634 25-463, species assumed): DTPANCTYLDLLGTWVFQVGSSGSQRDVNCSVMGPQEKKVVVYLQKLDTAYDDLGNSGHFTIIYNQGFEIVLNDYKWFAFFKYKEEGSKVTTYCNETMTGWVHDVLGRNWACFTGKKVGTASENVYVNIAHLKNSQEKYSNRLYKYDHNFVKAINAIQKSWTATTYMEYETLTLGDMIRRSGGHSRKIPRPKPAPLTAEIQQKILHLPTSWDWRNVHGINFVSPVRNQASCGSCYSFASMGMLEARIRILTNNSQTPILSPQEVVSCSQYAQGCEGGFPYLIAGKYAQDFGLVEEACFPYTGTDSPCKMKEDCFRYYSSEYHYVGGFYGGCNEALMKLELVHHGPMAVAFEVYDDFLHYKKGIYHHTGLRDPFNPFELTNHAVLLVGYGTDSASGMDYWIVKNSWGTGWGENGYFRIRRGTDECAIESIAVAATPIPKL

Molecule | k2 caspase-3 (caspase-3) [M⁻¹ s⁻¹] | k2 caspase-6 (caspase-6) [M⁻¹ s⁻¹] | kobs/[I] calpain (calpain) [M⁻¹ s⁻¹] | also measured
CCCCN(CCCC)C(=O)[C@H]1O[C@@H]1C(=O)N(CC(=O)O)NC(=O)[C@H](C)NC(=O)[C@@H](NC(=O)CCc1ccccc1)C(C)C [10-129, (2S,3S)-2-(Dibutylcarbamoyl)-3-(N^2-(3-phenylpropanoylvalylalanyl)-N^1-carboxymethylhydrazinocarbonyl)oxirane] | 520 ± 10 | 53 ± 9 |  | k2 caspase-1 (caspase-1): 26150 ± 5460 M⁻¹ s⁻¹
CC(C)C[C@H](NC(=O)OCc1ccccc1)C(=O)N[C@@H](CCC(=O)O)C(=O)N[C@H](C(=O)NN(CC(=O)O)C(=O)[C@H]1O[C@@H]1C(=O)N(Cc1ccccc1)Cc1ccccc1)[C@@H](C)O [11-4, (2S,3S)-2-(Dibenzylcarbamoyl)-3-(N^2-(N-benzyloxycarbonylleucylglutamylthreonyl)-N^1-carboxymethylhydrazinocarbonyl)oxirane] | 2750 ± 205 | 13840 ± 270 |  | 
trans-3-(N^2-Norvalyl)-N^1-phenylethylhydrazinocarbonyl)-1-(2-phenylethyl)oxirane Trifluoroacetate Salt [Nva-AHph-trans-EP-CH2CH2Ph.TFA] |  |  |  | kobs/[I] DPPI [1]: 0.1 M⁻¹ s⁻¹
CC(C)[C@H](NC(=O)CCc1ccccc1)C(=O)N[C@@H](C)C(=O)NN(CC(=O)O)C(=O)[C@H]1O[C@@H]1C(=O)N(C)Cc1ccccc1 [11-17, (2S,3S)-2-(N-Methyl-N-benzylcarbamoyl)-3-(N^2-(3-phenylpropanoylvalylalanyl)-N^1-carboxymethylhydrazinocarbonyl)oxirane] | 1950 ± 150 | 136 |  | 
CCCC(N)C(=O)NN(CCc1ccccc1)C(=O)C1OC1C(=O)OCC.O=C(O)C(F)(F)F (stereo not drawn) [Nva-AHph-trans-EP-COOEt.TFA] |  |  |  | kobs/[I] DPPI [1]: 3.2 M⁻¹ s⁻¹
CC(C)[C@H](NC(=O)CCc1ccccc1)C(=O)N[C@@H](C)C(=O)NN(CC(=O)O)C(=O)[C@H]1O[C@@H]1C(=O)N(Cc1ccccc1)Cc1ccccc1 [10-127, (2S,3S)-2-(Dibenzylcarbamoyl)-3-(N^2-(3-phenylpropanoylvalylalanyl)-N^1-carboxymethylhydrazinocarbonyl)oxirane] | 830 ± 40 | 145 ± 1 |  | k2 caspase-1 (caspase-1): 101140 ± 9547 M⁻¹ s⁻¹
CCOC(=O)[C@@H]1O[C@H]1C(=O)N(CC(C)C)NC(=O)OCc1ccccc1 (relative stereo) [Cbz-ALeu-trans-EP-COOEt, trans-3-(N^2-(N-Benzyloxycarbonyl)-N^1-isobutylhydrazinocarbonyl)oxirane-2-carboxylic Acid Ethyl Ester] |  |  | 1.75 | kobs/[I] papain (papain): 16.1 M⁻¹ s⁻¹; kobs/[I] cathepsin B (cathepsin B): 4.43 M⁻¹ s⁻¹
CC[C@H](C)[C@H](NC(=O)OCc1ccccc1)C(=O)N[C@@H](CCC(=O)O)C(=O)N[C@H](C(=O)NN(CC(=O)O)C(=O)[C@H]1O[C@@H]1C(=O)N(Cc1ccccc1)Cc1ccccc1)[C@@H](C)O [11-11, (2S,3S)-2-(Dibenzylcarbamoyl)-3-(N^2-(N-benzyloxycarbonylisoleucylglutamylthreonyl)-N^1-carboxymethylhydrazinocarbonyl)oxirane] | 3550 | 32000 ± 1680 |  | 
CC(C)C[C@H](NC(=O)OCc1ccccc1)C(=O)N[C@@H](CCC(=O)O)C(=O)N[C@H](C(=O)NN(CC(=O)O)C(=O)[C@H]1O[C@@H]1C(=O)N(C)Cc1ccccc1)[C@@H](C)O [11-16, (2S,3S)-2-(N-Methyl-N-benzylcarbamoyl)-3-(N^2-(N-benzyloxycarbonylleucylglutamylthreonyl)-N^1-carboxymethylhydrazinocarbonyl)oxirane] | 2640 ± 100 | 9680 ± 875 |  | 
CCOC(=O)[C@@H]1O[C@H]1C(=O)N(CC(C)C)NC(=O)[C@H](CC(C)C)NC(=O)OCc1ccccc1 (relative stereo) [Cbz-Leu-ALeu-trans-EP-COOEt, trans-3-(N^2-(N-Benzyloxycarbonyleucyl)-N^1-isobutylhydrazinocarbonyl)oxirane-2-carboxylic Acid Ethyl Ester] |  |  | 3.09 | kobs/[I] papain (papain): 6.37 M⁻¹ s⁻¹; kobs/[I] cathepsin B (cathepsin B): 23.32 M⁻¹ s⁻¹
CCOC(=O)[C@@H]1O[C@H]1C(=O)N(CCc1ccccc1)NC(=O)[C@H](CC(C)C)NC(C)=O (relative stereo) [Ac-Leu-AHph-trans-EP-COOEt, trans-3-(N^2-(N-Acetylleucyl)-N^1-phenylethylhydrazinocarbonyl)oxirane-2-carboxylic Acid Ethyl Ester] |  |  | 0.84 | kinact/KI (papain): 1.9 M⁻¹ s⁻¹; kinact/KI (cathepsin B): 0.59 M⁻¹ s⁻¹
CCOC(=O)C1OC1C(=O)N(CCc1ccccc1)NC(C)=O (stereo not drawn) [Ac-AHph-trans-EP-COOEt, trans-3-(N^2-(N-Acetyl)-N^1-phenylethylhydrazinocarbonyl)oxirane-2-carboxylic Acid Ethyl Ester] |  |  | 1.29 | kobs/[I] papain (papain): 26.88 M⁻¹ s⁻¹; kobs/[I] cathepsin B (cathepsin B): 40.62 M⁻¹ s⁻¹
CCOC(=O)[C@@H]1O[C@H]1C(=O)N(CC(C)C)NC(=O)[C@H](CC(C)C)NC(C)=O (relative stereo) [Ac-Leu-ALeu-trans-EP-COOEt, trans-3-(N^2-(N-Acetylleucyl)-N^1-isobutylhydrazinocarbonyl)oxirane-2-carboxylic Acid Ethyl Ester] |  |  | 1.48 | kinact/KI (papain): 2.09 M⁻¹ s⁻¹; kinact/KI (cathepsin B): 8 M⁻¹ s⁻¹
CC(C)C[C@H](NC(=O)OCc1ccccc1)C(=O)N[C@@H](CC(C)C)C(=O)NN(CC(C)C)C(=O)[C@H]1O[C@@H]1C(=O)O [Cbz-Leu-Leu-ALeu-(2S, 3S)-EP-COOH, (2S,3S)-3-(N^2-(N-Benzyloxycarbonylleucylleucyl)-N^1-isobutylhydrazinocarbonyl)oxirane-2-carboxylic Acid] |  |  | 0.82 | kinact/KI (papain): 6.93 M⁻¹ s⁻¹; kinact/KI (cathepsin B): 7.02 M⁻¹ s⁻¹
CC[C@H](C)[C@H](NC(=O)OCc1ccccc1)C(=O)N[C@@H](CCC(=O)O)C(=O)N[C@H](C(=O)NN(CC(=O)O)C(=O)[C@H]1O[C@@H]1C(=O)N(C)Cc1ccccc1)[C@@H](C)O [11-18, (2S,3S)-2-(N-Methyl-N-benzylcarbamoyl)-3-(N^2-(N-benzyloxycarbonylisoleucylglutamylthreonyl)-N^1-carboxymethylhydrazinocarbonyl)oxirane] | 4780 | 47730 ± 420 |  | 
